Reference: patent US12458021B2, “Microbiocidal derivatives” (SYNGENTA CROP PROTECTION AG, priority 2019, dated 2025)

Experiments:
[1] = system: Blumeria graminis f. sp. tritici (Erysiphe graminis f. sp. tritici); experiment: Blumeria graminis f. sp. tritici / wheat / leaf disc preventative (powdery mildew on wheat); type: in vivo; conditions: foliar, wheat leaf segments cv. Kanzler, inoculated 1 day after application, assessed 6-8 days after application, read-out: control of Blumeria graminis f. sp. tritici (percent disease control compared to untreated)
From the text: Example B4: Blumeria graminis f. sp. tritici (Erysiphe graminis f. sp. tritici)/Wheat/Leaf Disc Preventative (Powdery Mildew on Wheat) Wheat leaf segments cv. Kanzler are placed on agar in a multiwell plate (24-well format) and sprayed with the formulated test compound diluted in water. The leaf disks are inoculated by shaking powdery mildew infected plants above the test plates 1 day after application. […] […]-192.

[2] = system: Monographella nivalis (Microdochium nivale); experiment: Monographella nivalis (Microdochium nivale) / liquid culture (foot rot cereals); type: cell-based; conditions: PDB potato dextrose broth, 24° C., 4-5 days after application, read-out: control of Monographella nivalis (inhibition of growth, photometric)
Procedure: Example B7: Monographella nivalis (Microdochium nivale)/Liquid Culture (Foot Rot Cereals) Conidia of the fungus from cryogenic storage are directly mixed into nutrient broth (PDB potato dextrose broth). After placing a (DMSO) solution of test compound into a microtiter plate (96-well format), the nutrient broth containing the fungal spores is added. The test plates are incubated at 24° C. and the inhibition of growth is determined photometrically 4-5 days after application. […] […]-190.

[3] = system: Glomerella lagenarium (Colletotrichum lagenarium); experiment: Glomerella lagenarium (Colletotrichum lagenarium) / liquid culture (anthracnose); type: cell-based; conditions: Colletotrichum orbiculare, PDB potato dextrose broth, 24° C., 3-4 days after application, read-out: control of Glomerella lagenarium (inhibition of growth, photometric)
Procedure: Example B3: Glomerella lagenarium (Colletotrichum lagenarium)/Liquid Culture (Anthracnose) Conidia of the fungus from cryogenic storage are directly mixed into nutrient broth (PDB potato dextrose broth). After placing a (DMSO) solution of test compound into a microtiter plate (96-well format), the nutrient broth containing the fungal spores is added. The test plates are incubated at 24° C. and the inhibition of growth is measured photometrically 3-4 days after application. […] […]-191.

[4] = system: Mycosphaerella graminicola (Septoria tritici); experiment: Mycosphaerella graminicola (Septoria tritici) / liquid culture (Septoria blotch); type: cell-based; conditions: Zymoseptoria tritici, PDB potato dextrose broth, 24° C., 4-5 days after application, read-out: control of Mycosphaerella graminicola (inhibition of growth, photometric)
Procedure: Example B15: Mycosphaerella graminicola (Septoria tritici)/Liquid Culture (Septoria Blotch) Conidia of the fungus from cryogenic storage are directly mixed into nutrient broth (PDB potato dextrose broth). After placing a (DMSO) solution of test compound into a microtiter plate (96-well format), the nutrient broth containing the fungal spores is added. The test plates are incubated at 24° C. and the inhibition of growth is determined photometrically 4-5 days after application. […] […]-191.

Structure (SMILES)	pest or weed control at 200 ppm [1] [%]	inhibition at 20 ppm [2] [%]	inhibition at 20 ppm [3] [%]	inhibition at 20 ppm [4] [%]
COc1ccc(Nc2cc(F)nc(F)c2)nc1C(=O)NCC1(C)CCOC1 (stereo not shown) [Compound P-53, 6-[(2,6-difluoro-4-pyridyl)amino]-3-methoxy-N-[(3-methyltetrahydrofuran-3-yl)methyl]pyridine-2-carboxamide]	≥ 80			
CC1(C)CCC1NC(=O)c1nc(Nc2ccccc2)ccc1O (stereo not shown) [Compound P-16, 6-anilino-N-(2,2-dimethylcyclobutyl)-3-hydroxy-pyridine-2-carboxamide]		≥ 80	≥ 80	≥ 80
COc1cnc(Nc2cc(F)cc(F)c2)nc1C(=O)NCCC(C)C [Compound P-8, 2-(3,5-difluoroanilino)-N-isopentyl-5-methoxy-pyrimidine-4-carboxamide]		≥ 80	≥ 80	≥ 80
COc1ccc(Nc2cccc(C)c2)nc1C(=O)NCC(C)(C)C [Compound P-140, N-(2,2-dimethylpropyl)-3-methoxy-6-(3-methylanilino)pyridine-2-carboxamide]		≥ 80	≥ 80	≥ 80
COc1ccc(Nc2cc(F)nc(F)c2)nc1C(=O)NCc1nn(C)c2ncccc12 [Compound P-51, 6-[(2,6-difluoro-4-pyridyl)amino]-3-methoxy-N-[(1-methylpyrazolo[3,4-b]pyridin-3-yl)methyl]pyridine-2-carboxamide]	≥ 80			
COc1ccc(Nc2ccc(F)cc2)nc1C(=O)NCC(C)(C)C [Compound P-133, N-(2,2-dimethylpropyl)-6-(4-fluoroanilino)-3-methoxy-pyridine-2-carboxamide]		≥ 80	≥ 80	≥ 80
COc1ccc(Nc2cncnc2)nc1C(=O)NC(C)(C)C [Compound P-166, N-tert-butyl-3-methoxy-6-(pyrimidin-5-ylamino)pyridine-2-carboxamide]	≥ 80			
COc1ccc(NCC(C)(C)C)nc1C(=O)NCC(C)(C)C [Compound P-43, N-(2,2-dimethylpropyl)-6-(2,2-dimethylpropylamino)-3-methoxy-pyridine-2-carboxamide]		≥ 80		≥ 80
C#CCOc1ccc(Nc2cc(F)cc(F)c2)nc1C(=O)NC(C)(C)C [Compound P-96, N-tert-butyl-6-(3,5-difluoroanilino)-3-prop-2-ynoxy-pyridine-2-carboxamide]		≥ 80		≥ 80
CC1(C)CCC1NC(=O)c1nc(Nc2ccnc(F)c2)ccc1O (stereo not shown) [Compound P-18, N-(2,2-dimethylcyclobutyl)-6-[(2-fluoro-4-pyridyl)amino]-3-hydroxy-pyridine-2-carboxamide]		≥ 80	≥ 80	≥ 80
COc1ccc(Nc2cc(F)nc(F)c2)nc1C(=O)NC1(C)CCOC1 (stereo not shown) [Compound P-124, 6-[(2,6-difluoro-4-pyridyl)amino]-3-methoxy-N-(3-methyltetrahydrofuran-3-yl)pyridine-2-carboxamide]	≥ 80			
COc1ccc(Nc2cnsc2)nc1C(=O)NCc1ccc(Cl)cc1 [Compound P-37, N-[(4-chlorophenyl)methyl]-6-(isothiazol-4-ylamino)-3-methoxy-pyridine-2-carboxamide]		≥ 80	≥ 80	≥ 80
O=C(NC1CCC12CCCC2)c1nc(Nc2cc(F)nc(F)c2)ccc1O (stereo not shown) [Compound P-3, 6-[(2,6-difluoro-4-pyridyl)amino]-3-hydroxy-N-spiro[3.4]octan-3-yl-pyridine-2-carboxamide]		≥ 80	≥ 80	≥ 80
COc1ccc(Nc2cnsc2)nc1C(=O)NC(C)COc1cc(F)cc(F)c1 (stereo not shown) [Compound P-38, N-[2-(3,5-difluorophenoxy)-1-methyl-ethyl]-6-(isothiazol-4-ylamino)-3-methoxy-pyridine-2-carboxamide]		≥ 80		≥ 80
COc1ccc(Nc2cc(F)cc(F)c2)nc1C(=O)NCC1(c2ccc(Cl)nc2)CC1 [Compound P-73, N-[[1-(6-chloro-3-pyridyl)cyclopropyl]methyl]-6-(3,5-difluoroanilino)-3-methoxy-pyridine-2-carboxamide]		≥ 80	≥ 80	≥ 80
COc1ccc(Nc2cc(F)cc(F)c2)nc1C(=O)NC1CC2(COC2)C1 [Compound P-64, 6-(3,5-difluoroanilino)-3-methoxy-N-(2-oxaspiro[3.3]heptan-6-yl)pyridine-2-carboxamide]	≥ 80			
COc1ccc(NCC2CC2)nc1C(=O)NCC(C)(C)C [Compound P-40, 6-(cyclopropylmethylamino)-N-(2,2-dimethylpropyl)-3-methoxy-pyridine-2-carboxamide]		≥ 80		≥ 80
COc1cnc(Nc2cc(F)nc(F)c2)nc1C(=O)NC1CCC1(C)C (stereo not shown) [Compound P-11, 2-[(2,6-difluoro-4-pyridyl)amino]-N-(2,2-dimethylcyclobutyl)-5-methoxy-pyrimidine-4-carboxamide]	≥ 80			
COc1ccc(Nc2cc(F)nc(F)c2)nc1C(=O)NCc1cncn1Cc1ccccc1 [Compound P-48, N-[(3-benzylimidazol-4-yl)methyl]-6-[(2,6-difluoro-4-pyridyl)amino]-3-methoxy-pyridine-2-carboxamide]	≥ 80			
CC1(C)CCC1NC(=O)c1nc(Nc2cc(F)cc(F)c2)ccc1O (stereo not shown) [Compound P-2, 6-(3,5-difluoroanilino)-N-(2,2-dimethylcyclobutyl)-3-hydroxy-pyridine-2-carboxamide]		≥ 80	≥ 80	≥ 80
COc1ccc(Nc2cc(F)nc(F)c2)nc1C(=O)NC1C2CCOC2C1(C)C (stereo not shown) [Compound P-54, 6-[(2,6-difluoro-4-pyridyl)amino]-N-(7,7-dimethyl-2-oxabicyclo[3.2.0]heptan-6-yl)-3-methoxy-pyridine-2-carboxamide]	≥ 80			
COc1ccc(Nc2ccc(Cl)c(Cl)c2)nc1C(=O)NCC(C)(C)C [Compound P-131, 6-(3,4-dichloroanilino)-N-(2,2-dimethylpropyl)-3-methoxy-pyridine-2-carboxamide]		≥ 80	≥ 80	
COc1ccc(Nc2cc(F)nc(F)c2)nc1C(=O)NC1COC(C2CC2)C1 (stereo not shown) [Compound P-50, N-(5-cyclopropyltetrahydrofuran-3-yl)-6-[(2,6-difluoro-4-pyridyl)amino]-3-methoxy-pyridine-2-carboxamide]	≥ 80			
CCON=C(CNC(=O)c1nc(Nc2cc(F)cc(F)c2)ccc1OC)c1ncc(Cl)cc1Cl [Compound P-75, N-[2-(3,5-dichloro-2-pyridyl)-2-ethoxyimino-ethyl]-6-(3,5-difluoroanilino)-3-methoxy-pyridine-2-carboxamide]		≥ 80	≥ 80	≥ 80
COc1ccc(Nc2cnsc2)nc1C(=O)NCCOc1ccc(Cl)cc1Cl [Compound P-39, N-[2-(2,4-dichlorophenoxy)ethyl]-6-(isothiazol-4-ylamino)-3-methoxy-pyridine-2-carboxamide]		≥ 80	≥ 80	≥ 80
